Data reported in ChEMBL document CHEMBL5380868, “Filling a nick in NIK: Extending the half-life of a NIK inhibitor through structure-based drug design” (Bioorg Med Chem Lett, 2023).
In brackets after ≈: the same amount, converted by molar mass. Each block holds one compound with its values, some of them ahead of it.

Assays:
[1] = biological target: Leucine-rich repeat serine/threonine-protein kinase 2 (Homo sapiens) (UniProt Q5S007); assay: Inhibition of recombinant human LRRK2 at 1 uM relative to control
[2] = Volume of distribution in C57BL/6J mouse; type: ADME; conditions: in vivo
[3] = Volume of distribution in Sprague-Dawley rat; type: ADME; conditions: in vivo
[4] = Volume of distribution in non-naive Beagle dog; type: ADME, Canis lupus familiaris; conditions: in vivo
[5] = Volume of distribution in Cynomolgus monkey; type: ADME, Macaca fascicularis; conditions: in vivo
[6] = Oral bioavailability in C57BL/6J mouse at 50 mg/kg; type: ADME, organism-based; conditions: in vivo
[7] = Oral bioavailability in Sprague-Dawley rat at 5 mg/kg; type: ADME, organism-based; conditions: in vivo
[8] = Oral bioavailability in non-naive Beagle dog at 5 mg/kg; type: ADME, organism-based, Canis lupus familiaris; conditions: in vivo
[9] = Oral bioavailability in Cynomolgus monkey at 5 mg/kg; type: ADME, organism-based, Macaca fascicularis; conditions: in vivo
[10] = Kinetic solubility of compound in PBS at pH 7.4; type: physicochemical; conditions: read-out: Kinetic_solubility
[11] = Inhibition of Herpes simplex virus thymidine kinase in HEK293 cells by Renilla luciferase based assay; type: cell-based; conditions: Herpesviridae sp.
[12] = system: HEK293; assay: Inhibition of Herpes simplex virus thymidine kinase in HEK293 cells assessed as maximal inhibition by Renilla luciferase based assay relative to control; type: cell-based; conditions: Herpesviridae sp.
[13] = Plasma clearance in iv dosed C57BL/6J mouse; type: ADME, organism-based
[14] = Plasma clearance in iv dosed Sprague-Dawley rat; type: ADME, organism-based
[15] = Plasma clearance in iv dosed non-naive Beagle dog; type: ADME, organism-based, Canis lupus familiaris
[16] = Plasma clearance in iv dosed Cynomolgus monkey; type: ADME, organism-based, Macaca fascicularis; conditions: in vivo
[17] = Unbound plasma clearance in iv dosed C57BL/6J mouse; type: ADME, organism-based; conditions: in vivo
[18] = Unbound plasma clearance in iv dosed Sprague-Dawley rat; type: ADME, organism-based; conditions: in vivo
[19] = Unbound plasma clearance in iv dosed non-naive Beagle dog; type: ADME, organism-based, Canis lupus familiaris; conditions: in vivo
[20] = Unbound plasma clearance in iv dosed Cynomolgus monkey; type: ADME, organism-based, Macaca fascicularis; conditions: in vivo
[21] = Half life in iv dosed C57BL/6J mouse; type: ADME, organism-based; conditions: in vivo
[22] = Half life in iv dosed Sprague-Dawley rat; type: ADME, organism-based; conditions: in vivo
[23] = Half life in iv dosed non-naive Beagle dog; type: ADME, organism-based, Canis lupus familiaris; conditions: in vivo
[24] = Half life in iv dosed Cynomolgus monkey; type: ADME, organism-based, Macaca fascicularis; conditions: in vivo
[25] = Oral bioavailability in C57BL/6J mouse at 10 mg/kg; type: ADME, organism-based; conditions: in vivo
[26] = Oral bioavailability in non-naive Beagle dog at 1 mg/kg; type: ADME, organism-based, Canis lupus familiaris; conditions: in vivo
[27] = Oral bioavailability in Cynomolgus monkey at 1 mg/kg; type: ADME, organism-based, Macaca fascicularis; conditions: in vivo
[28] = Lipophilicity, logD of the compound at pH 7.4 by shake flask method based LC-MS analysis; type: physicochemical; conditions: buffer
[29] = biological target: T1, Mitogen-activated protein kinase kinase kinase 14 (Homo sapiens, UniProt Q99558); assay: Inhibition of NIK in HEK-293 cells assessed as inhibition of NIK-dependent NF-kappaB response element expression by firefly luciferase reporter gene based analysis; type: cell-based, HEK293
[30] = biological target: T1, Mitogen-activated protein kinase kinase kinase 14; assay: Inhibition of NIK in HUVEC cells assessed as inhibition of anti-[…]-stimulated p52 nuclear translocation; type: cell-based
[31] = Hepatic clearance in human liver microsomes; type: ADME, Microsome
[32] = Hepatic clearance in rat liver microsomes; type: ADME, Microsome
[33] = Hepatic clearance in mouse liver microsomes; type: ADME, Microsome
[34] = Hepatic clearance in dog liver microsomes; type: ADME, Canis lupus familiaris, Microsome
[35] = Hepatic clearance in cynomolgus monkey liver microsomes; type: ADME, Macaca fascicularis, Microsome
[36] = Hepatic clearance in human hepatocytes; type: ADME, cell-based, Hepatocyte
[37] = Hepatic clearance in rat hepatocytes; type: ADME, cell-based, Hepatocyte
[38] = Hepatic clearance in mouse hepatocytes; type: ADME, cell-based, Hepatocyte
[39] = Hepatic clearance in dog hepatocytes; type: ADME, cell-based, Canis lupus familiaris, Hepatocyte
[40] = Hepatic clearance in cynomolgus monkey hepatocytes; type: ADME, cell-based, Macaca fascicularis, Hepatocyte
[41] = biological target: T1, Mitogen-activated protein kinase kinase kinase 14; assay: Inhibition of NIK (unknown origin) catalyzed ATP hydrolysis by fluorescence polarization method
[42] = biological target: Mitogen-activated protein kinase kinase kinase kinase 5 (Homo sapiens) (UniProt Q9Y4K4); assay: Inhibition of recombinant human KHS1 at 1 uM relative to control
[43] = biological target: T1, Mitogen-activated protein kinase kinase kinase 14; assay: Inhibition of NIK in human primary B cell assessed as inhibition of CD40L-stimulated nuclear translocation of p52 in cell based assay
[44] = biological target: Serine/threonine-protein kinase D1 (Homo sapiens) (UniProt Q15139); assay: Inhibition of recombinant human PKD1 at 1 uM relative to control
Sequence of Serine/threonine-protein kinase D1 (Homo sapiens) (Q15139 whole entry, looked up): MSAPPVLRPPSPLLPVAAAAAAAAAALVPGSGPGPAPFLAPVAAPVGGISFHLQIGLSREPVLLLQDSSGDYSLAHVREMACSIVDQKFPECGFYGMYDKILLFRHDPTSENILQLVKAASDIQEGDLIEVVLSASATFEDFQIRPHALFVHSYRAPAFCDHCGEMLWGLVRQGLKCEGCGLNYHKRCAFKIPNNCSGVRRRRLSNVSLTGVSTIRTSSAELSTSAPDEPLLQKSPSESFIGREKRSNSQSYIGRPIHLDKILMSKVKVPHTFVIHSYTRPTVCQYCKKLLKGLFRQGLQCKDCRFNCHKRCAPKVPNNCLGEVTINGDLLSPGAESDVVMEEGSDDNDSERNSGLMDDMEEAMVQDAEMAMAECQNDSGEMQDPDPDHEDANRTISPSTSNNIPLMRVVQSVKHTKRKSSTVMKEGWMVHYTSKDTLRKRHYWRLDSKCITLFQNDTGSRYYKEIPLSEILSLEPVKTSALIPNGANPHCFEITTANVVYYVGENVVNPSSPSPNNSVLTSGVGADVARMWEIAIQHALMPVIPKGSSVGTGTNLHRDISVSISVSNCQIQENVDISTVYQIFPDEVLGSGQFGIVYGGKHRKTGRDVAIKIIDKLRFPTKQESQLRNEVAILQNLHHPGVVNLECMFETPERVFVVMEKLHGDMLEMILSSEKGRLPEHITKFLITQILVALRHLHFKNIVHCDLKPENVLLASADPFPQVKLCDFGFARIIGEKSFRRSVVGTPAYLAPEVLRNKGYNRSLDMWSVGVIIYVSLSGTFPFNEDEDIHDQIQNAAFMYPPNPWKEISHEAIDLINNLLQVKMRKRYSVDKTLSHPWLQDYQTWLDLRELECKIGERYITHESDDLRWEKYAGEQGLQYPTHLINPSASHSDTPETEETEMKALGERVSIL

T1 sequence (Q99558 whole entry): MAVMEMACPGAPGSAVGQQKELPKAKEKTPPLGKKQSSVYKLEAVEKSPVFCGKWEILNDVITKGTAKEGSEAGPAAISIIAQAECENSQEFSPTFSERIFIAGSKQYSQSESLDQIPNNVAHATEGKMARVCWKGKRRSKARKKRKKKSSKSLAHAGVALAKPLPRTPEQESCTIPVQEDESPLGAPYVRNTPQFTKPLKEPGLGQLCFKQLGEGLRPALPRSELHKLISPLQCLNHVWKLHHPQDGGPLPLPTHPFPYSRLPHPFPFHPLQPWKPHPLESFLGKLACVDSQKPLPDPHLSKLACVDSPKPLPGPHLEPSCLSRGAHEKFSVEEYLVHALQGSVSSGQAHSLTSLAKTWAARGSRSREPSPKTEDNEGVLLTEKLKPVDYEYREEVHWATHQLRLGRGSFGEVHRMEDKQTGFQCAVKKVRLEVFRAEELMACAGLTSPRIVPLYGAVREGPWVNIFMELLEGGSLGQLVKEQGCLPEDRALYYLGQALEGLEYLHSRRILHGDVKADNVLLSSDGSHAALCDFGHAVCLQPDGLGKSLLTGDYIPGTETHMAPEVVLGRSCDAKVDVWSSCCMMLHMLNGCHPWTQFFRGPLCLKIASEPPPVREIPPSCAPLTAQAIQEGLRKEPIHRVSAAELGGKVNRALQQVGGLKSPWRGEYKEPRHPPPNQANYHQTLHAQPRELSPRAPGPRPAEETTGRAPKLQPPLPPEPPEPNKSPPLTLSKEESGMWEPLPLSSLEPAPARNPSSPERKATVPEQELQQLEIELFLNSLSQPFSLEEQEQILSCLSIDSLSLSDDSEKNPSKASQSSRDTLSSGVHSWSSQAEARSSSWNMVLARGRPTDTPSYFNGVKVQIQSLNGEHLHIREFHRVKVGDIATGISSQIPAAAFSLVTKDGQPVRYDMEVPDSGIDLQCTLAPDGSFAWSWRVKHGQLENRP
Sequence of Leucine-rich repeat serine/threonine-protein kinase 2 (Homo sapiens) (Q5S007 whole entry): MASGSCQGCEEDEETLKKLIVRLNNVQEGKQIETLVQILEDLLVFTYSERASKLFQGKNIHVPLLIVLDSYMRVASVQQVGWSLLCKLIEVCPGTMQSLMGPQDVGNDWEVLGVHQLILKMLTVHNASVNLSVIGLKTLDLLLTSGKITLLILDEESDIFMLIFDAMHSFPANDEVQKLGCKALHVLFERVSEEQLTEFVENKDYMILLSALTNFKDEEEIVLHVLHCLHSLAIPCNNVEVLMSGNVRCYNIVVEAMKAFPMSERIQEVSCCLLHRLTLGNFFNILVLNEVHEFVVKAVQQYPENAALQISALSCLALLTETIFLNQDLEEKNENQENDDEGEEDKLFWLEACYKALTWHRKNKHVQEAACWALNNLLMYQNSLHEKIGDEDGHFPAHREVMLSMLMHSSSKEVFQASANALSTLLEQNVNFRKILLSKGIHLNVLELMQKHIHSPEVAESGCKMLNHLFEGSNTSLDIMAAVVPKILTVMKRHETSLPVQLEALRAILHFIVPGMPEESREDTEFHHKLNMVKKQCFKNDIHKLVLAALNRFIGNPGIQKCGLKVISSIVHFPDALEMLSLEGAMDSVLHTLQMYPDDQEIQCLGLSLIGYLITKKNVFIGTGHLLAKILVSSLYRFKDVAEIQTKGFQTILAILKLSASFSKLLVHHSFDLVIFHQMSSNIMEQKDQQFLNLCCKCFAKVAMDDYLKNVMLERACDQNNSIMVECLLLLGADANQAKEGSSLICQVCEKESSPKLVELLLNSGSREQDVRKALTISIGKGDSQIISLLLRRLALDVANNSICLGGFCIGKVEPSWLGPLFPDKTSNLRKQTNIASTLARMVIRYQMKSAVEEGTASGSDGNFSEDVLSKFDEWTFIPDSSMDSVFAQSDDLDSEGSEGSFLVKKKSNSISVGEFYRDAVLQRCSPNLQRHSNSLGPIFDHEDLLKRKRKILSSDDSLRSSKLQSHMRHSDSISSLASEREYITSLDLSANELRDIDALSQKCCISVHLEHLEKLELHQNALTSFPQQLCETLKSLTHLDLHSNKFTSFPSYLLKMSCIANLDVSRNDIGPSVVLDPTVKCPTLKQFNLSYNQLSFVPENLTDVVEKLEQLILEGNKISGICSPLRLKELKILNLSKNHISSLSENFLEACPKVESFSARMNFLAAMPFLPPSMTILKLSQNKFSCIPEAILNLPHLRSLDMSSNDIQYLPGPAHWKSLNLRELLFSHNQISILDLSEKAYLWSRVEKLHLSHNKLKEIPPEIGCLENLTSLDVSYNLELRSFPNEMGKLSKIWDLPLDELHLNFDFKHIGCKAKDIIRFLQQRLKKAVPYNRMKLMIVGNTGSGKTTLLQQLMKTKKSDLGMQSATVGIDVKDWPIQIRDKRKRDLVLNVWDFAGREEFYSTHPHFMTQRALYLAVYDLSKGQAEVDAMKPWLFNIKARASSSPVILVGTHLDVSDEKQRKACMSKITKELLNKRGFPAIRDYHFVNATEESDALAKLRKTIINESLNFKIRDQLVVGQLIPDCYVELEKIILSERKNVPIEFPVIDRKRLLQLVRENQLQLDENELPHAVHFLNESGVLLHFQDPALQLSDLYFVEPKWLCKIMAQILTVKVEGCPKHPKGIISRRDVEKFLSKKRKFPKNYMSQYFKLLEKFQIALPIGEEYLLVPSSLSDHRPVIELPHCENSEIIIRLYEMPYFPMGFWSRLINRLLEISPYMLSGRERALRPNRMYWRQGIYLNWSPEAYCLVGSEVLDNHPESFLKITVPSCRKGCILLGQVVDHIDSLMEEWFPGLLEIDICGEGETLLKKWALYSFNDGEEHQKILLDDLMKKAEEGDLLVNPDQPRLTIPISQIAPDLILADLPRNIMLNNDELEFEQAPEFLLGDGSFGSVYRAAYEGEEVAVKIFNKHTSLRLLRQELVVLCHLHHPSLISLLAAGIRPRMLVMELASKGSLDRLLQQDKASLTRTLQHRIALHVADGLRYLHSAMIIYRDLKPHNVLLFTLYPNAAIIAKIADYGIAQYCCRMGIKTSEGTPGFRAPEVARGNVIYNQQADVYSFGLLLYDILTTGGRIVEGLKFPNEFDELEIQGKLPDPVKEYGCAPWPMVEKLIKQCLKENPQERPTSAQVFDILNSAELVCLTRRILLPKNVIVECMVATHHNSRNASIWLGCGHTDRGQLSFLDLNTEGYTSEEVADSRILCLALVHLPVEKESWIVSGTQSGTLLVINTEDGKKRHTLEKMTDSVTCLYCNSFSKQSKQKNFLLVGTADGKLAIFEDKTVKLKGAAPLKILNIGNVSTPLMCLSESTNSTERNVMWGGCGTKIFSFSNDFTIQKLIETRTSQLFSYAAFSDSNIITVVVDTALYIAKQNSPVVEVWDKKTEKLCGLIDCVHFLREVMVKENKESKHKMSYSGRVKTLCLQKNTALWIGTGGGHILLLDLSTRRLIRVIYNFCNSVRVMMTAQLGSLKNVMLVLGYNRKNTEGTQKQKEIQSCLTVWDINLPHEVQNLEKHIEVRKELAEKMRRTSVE

inhibition [1]: 82%
Compound: COc1cc(C(N)=O)nc(-c2cccc(C#C[C@]3(O)CCN(C)C3=O)c2)c1

Vd [2]: 0.5 L/kg
Vd [3]: 2.9 L/kg
Vd [4]: 0.8 L/kg
Vd [5]: 1.1 L/kg
bioavailability [6]: 72%
bioavailability [7]: 62%
bioavailability [8]: 44%
bioavailability [9]: > 100%
solubility kinetic [10]: 122 µM (≈ 45.8 µg/mL)
IC50 [11]: > 2000 nM
inhibition [1]: 59%
Compound: CN1CC[C@@](O)(C#Cc2cccc(-n3nc(C(N)=O)c4cccnc43)c2)C1=O
Imax [12]: 7%

clearance [13]: 11 mL/min/kg
clearance [14]: 42 mL/min/kg
clearance [15]: 7.1 mL/min/kg
clearance [16]: 6.7 mL/min/kg
CL free [17]: 367 mL/min/kg
CL free [18]: 656 mL/min/kg
CL free [19]: 68 mL/min/kg
CL free [20]: 95 mL/min/kg
Vd [2]: 1.1 L/kg
Vd [3]: 2.6 L/kg
Vd [4]: 1.2 L/kg
Vd [5]: 2 L/kg
half-life [21]: 1.5 h
half-life [22]: 0.7 h
half-life [23]: 4.8 h
half-life [24]: 4.9 h
bioavailability [7]: > 100%
bioavailability [25]: 49%
bioavailability [26]: 78%
bioavailability [27]: 65%
logD [28]: 1.8
solubility kinetic [10]: 92 µM (≈ 35.6 µg/mL)
IC50 [29]: 53 nM
IC50 [11]: > 2000 nM
IC50 [30]: 55 nM
CLhep predicted [31]: 5.8 mL/min/kg
CLhep predicted [32]: 18 mL/min/kg
CLhep predicted [33]: 29 mL/min/kg
CLhep predicted [34]: 14 mL/min/kg
CLhep predicted [35]: 15 mL/min/kg
CLhep predicted [36]: < 6.2 mL/min/kg
CLhep predicted [37]: < 10 mL/min/kg
CLhep predicted [38]: < 21 mL/min/kg
CLhep predicted [39]: < 7.8 mL/min/kg
CLH [40]: < 8.8 mL/min/kg
IC50 [41]: 2 nM
inhibition [42]: 89%
inhibition [1]: 6%
IC50 [43]: 330 nM
inhibition [44]: 79%
Compound: CN1C(=O)[C@](O)(C#Cc2cccc(-n3nc(C(N)=O)c4cccnc43)c2)[C@H]2C[C@H]21
Imax [12]: 6%
